# Assay results from the kinase profiling compilation of Christmann-Franck et al. (2016).
# Legend:
# [1] = target: TSSK1B (human) (UniProt Q9BXA7); assay: KINOMEscan competition binding; settings: compound 10.0 µM
# [2] = target: CAMK2A (human) (UniProt Q9UQM7); assay: KINOMEscan competition binding; settings: compound 10.0 µM
# [3] = target: TNK1 (human) (UniProt Q13470); assay: KINOMEscan competition binding
# [4] = target: DSTYK (human) (UniProt Q6XUX3); assay: KINOMEscan competition binding; settings: compound 10.0 µM
# [5] = target: PIK3CG (human) (UniProt P48736); assay: KINOMEscan competition binding; settings: compound 10.0 µM
# [6] = target: CDKL2 (human) (UniProt Q92772); assay: KINOMEscan competition binding; settings: compound 10.0 µM
# [7] = system: FLT3 (human), P36888 [ITD]; assay: KINOMEscan competition binding; settings: compound 10.0 µM
# [8] = target: EPHA5 (human) (UniProt P54756); assay: KINOMEscan competition binding; settings: compound 10.0 µM
# [9] = target: JAK3 JH1 catalytic (human) (UniProt P52333); assay: KINOMEscan competition binding; settings: compound 10.0 µM
# [10] = target: NIM1 (human) (UniProt Q8IY84); assay: KINOMEscan competition binding; settings: compound 10.0 µM
# [11] = target: NTRK1 (human) (UniProt P04629); assay: KINOMEscan competition binding; settings: compound 10.0 µM
# [12] = target: LCK (human) (UniProt P06239); assay: KINOMEscan competition binding; settings: compound 10.0 µM
# [13] = target: HIPK3 (human) (UniProt Q9H422); assay: KINOMEscan competition binding; settings: compound 10.0 µM
# [14] = target: ACVR2B (human) (UniProt Q13705); assay: KINOMEscan competition binding; settings: compound 10.0 µM
# [15] = target: TAOK3 (human) (UniProt Q9H2K8); assay: KINOMEscan competition binding; settings: compound 10.0 µM
# [16] = target: PRKD2 (human) (UniProt Q9BZL6); assay: KINOMEscan competition binding; settings: compound 10.0 µM
# [17] = target: SIK3 (human) (UniProt Q9Y2K2); assay: KINOMEscan competition binding; settings: compound 10.0 µM
# [18] = system: KIT (human), P10721 [V559D/T670I]; assay: KINOMEscan competition binding; settings: compound 10.0 µM
# [19] = target: PRKG1 (human) (UniProt Q13976); assay: KINOMEscan competition binding; settings: compound 10.0 µM
# [20] = target: ABL2 (human) (UniProt P42684); assay: KINOMEscan competition binding; settings: compound 10.0 µM
# [21] = target: AURKA (human) (UniProt O14965); assay: SelectScreen, TR FRET
# [22] = target: CHEK2 (human) (UniProt O96017); assay: SelectScreen, TR FRET
# [23] = target: AURKB (human) (UniProt Q96GD4); assay: SelectScreen, TR FRET
# [24] = target: PLK1 (human) (UniProt P53350); assay: SelectScreen, TR FRET
# [25] = target: MKNK2 (human) (UniProt Q9HBH9); assay: SelectScreen, TR FRET
# [26] = target: NUAK1 (human) (UniProt O60285); assay: SelectScreen, TR FRET
# [27] = target: MYLK (human) (UniProt Q15746); assay: SelectScreen, TR FRET
# [28] = target: LRRK2 (human) (UniProt Q5S007); assay: SelectScreen, TR FRET
# [29] = target: DCLK2 (human) (UniProt Q8N568); assay: SelectScreen, TR FRET
# [30] = target: CAMKK2 (human) (UniProt Q96RR4); assay: radiometric filter-binding kinase assay
# [31] = target: MAPKAPK3 (human) (UniProt Q16644); assay: radiometric filter-binding kinase assay
# [32] = target: NEK2 (human) (UniProt P51955); assay: radiometric filter-binding kinase assay
# [33] = target: MAPK11 (human) (UniProt Q15759); assay: radiometric filter-binding kinase assay
# [34] = target: DYRK1A (human) (UniProt Q13627); assay: radiometric filter-binding kinase assay
# [35] = target: PKN2 (human) (UniProt Q16513); assay: radiometric filter-binding kinase assay
# [36] = target: BRSK2 (human) (UniProt Q8IWQ3); assay: radiometric filter-binding kinase assay
# [37] = target: CaMK1 (human) (UniProt Q14012); assay: radiometric filter-binding kinase assay
# [38] = target: STK11 CAB39 STRADA (human) (UniProt Q9Y376+Q7RTN6+Q15831); assay: radiometric filter-binding kinase assay
# STK11 CAB39 STRADA (human), sequence (Q15831 whole entry, looked up): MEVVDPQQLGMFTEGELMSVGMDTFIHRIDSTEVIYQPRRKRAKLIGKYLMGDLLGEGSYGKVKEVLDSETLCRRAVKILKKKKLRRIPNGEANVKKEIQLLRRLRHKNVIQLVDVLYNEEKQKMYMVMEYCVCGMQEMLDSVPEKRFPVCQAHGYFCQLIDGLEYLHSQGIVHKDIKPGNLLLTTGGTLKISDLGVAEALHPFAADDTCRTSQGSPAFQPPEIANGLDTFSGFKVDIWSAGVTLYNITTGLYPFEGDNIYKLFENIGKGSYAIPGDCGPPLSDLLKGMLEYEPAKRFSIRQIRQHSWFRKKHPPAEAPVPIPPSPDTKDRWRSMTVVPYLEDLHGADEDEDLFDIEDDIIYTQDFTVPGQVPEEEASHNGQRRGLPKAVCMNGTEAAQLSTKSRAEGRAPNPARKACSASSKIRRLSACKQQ
# STK11 CAB39 STRADA (human), sequence (Q7RTN6 whole entry, looked up): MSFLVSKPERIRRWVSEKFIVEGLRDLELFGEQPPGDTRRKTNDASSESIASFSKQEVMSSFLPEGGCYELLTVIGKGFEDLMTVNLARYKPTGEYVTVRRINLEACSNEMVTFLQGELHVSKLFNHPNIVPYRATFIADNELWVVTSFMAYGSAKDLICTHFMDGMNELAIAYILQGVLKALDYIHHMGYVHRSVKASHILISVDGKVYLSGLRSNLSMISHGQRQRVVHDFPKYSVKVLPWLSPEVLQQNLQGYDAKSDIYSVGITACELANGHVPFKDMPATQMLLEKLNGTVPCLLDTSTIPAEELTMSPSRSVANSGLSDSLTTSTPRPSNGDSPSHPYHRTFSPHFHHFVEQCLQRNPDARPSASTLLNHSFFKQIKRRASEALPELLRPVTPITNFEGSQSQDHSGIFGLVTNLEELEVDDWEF
# STK11 CAB39 STRADA (human), sequence (Q9Y376 whole entry, looked up): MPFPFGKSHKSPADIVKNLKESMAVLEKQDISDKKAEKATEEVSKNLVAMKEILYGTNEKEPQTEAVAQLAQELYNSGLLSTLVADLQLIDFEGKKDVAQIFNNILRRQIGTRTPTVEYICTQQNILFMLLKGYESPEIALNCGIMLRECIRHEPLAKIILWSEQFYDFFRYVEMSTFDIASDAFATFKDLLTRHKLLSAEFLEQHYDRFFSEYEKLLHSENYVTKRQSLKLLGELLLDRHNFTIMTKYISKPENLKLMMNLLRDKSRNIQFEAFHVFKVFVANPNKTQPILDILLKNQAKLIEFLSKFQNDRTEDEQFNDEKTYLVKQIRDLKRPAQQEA
# MAPK11 (human), sequence (Q15759 whole entry, looked up): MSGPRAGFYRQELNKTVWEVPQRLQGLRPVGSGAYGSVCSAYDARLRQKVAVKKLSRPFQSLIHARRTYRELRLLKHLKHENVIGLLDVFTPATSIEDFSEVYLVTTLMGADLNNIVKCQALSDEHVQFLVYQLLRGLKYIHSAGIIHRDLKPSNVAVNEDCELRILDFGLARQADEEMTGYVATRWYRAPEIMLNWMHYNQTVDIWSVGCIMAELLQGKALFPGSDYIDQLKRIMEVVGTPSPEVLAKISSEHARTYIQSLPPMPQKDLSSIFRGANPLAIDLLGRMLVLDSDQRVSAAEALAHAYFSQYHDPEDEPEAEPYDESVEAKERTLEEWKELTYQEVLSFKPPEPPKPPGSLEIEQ
# CaMK1 (human), sequence (Q14012 whole entry, looked up): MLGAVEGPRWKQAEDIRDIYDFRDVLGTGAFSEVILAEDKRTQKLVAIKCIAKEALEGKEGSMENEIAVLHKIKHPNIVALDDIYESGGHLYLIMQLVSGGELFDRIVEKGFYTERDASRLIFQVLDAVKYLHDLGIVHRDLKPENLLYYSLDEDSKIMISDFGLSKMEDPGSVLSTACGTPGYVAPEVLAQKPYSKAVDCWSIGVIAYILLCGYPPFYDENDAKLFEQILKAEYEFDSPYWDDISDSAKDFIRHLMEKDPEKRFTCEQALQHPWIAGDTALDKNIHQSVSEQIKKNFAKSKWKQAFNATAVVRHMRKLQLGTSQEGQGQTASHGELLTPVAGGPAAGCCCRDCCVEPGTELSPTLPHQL
# MAPKAPK3 (human), sequence (Q16644 whole entry, looked up): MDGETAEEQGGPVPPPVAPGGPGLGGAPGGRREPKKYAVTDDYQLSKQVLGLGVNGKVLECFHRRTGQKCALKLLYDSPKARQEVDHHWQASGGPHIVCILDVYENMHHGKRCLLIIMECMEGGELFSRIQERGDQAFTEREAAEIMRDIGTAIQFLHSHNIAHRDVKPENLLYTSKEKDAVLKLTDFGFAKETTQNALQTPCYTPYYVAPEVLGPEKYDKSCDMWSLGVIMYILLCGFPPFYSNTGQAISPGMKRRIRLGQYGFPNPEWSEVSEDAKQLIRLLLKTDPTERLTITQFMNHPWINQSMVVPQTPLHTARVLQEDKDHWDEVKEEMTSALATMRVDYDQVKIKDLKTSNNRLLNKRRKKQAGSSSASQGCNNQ
# BRSK2 (human), sequence (Q8IWQ3 whole entry, looked up): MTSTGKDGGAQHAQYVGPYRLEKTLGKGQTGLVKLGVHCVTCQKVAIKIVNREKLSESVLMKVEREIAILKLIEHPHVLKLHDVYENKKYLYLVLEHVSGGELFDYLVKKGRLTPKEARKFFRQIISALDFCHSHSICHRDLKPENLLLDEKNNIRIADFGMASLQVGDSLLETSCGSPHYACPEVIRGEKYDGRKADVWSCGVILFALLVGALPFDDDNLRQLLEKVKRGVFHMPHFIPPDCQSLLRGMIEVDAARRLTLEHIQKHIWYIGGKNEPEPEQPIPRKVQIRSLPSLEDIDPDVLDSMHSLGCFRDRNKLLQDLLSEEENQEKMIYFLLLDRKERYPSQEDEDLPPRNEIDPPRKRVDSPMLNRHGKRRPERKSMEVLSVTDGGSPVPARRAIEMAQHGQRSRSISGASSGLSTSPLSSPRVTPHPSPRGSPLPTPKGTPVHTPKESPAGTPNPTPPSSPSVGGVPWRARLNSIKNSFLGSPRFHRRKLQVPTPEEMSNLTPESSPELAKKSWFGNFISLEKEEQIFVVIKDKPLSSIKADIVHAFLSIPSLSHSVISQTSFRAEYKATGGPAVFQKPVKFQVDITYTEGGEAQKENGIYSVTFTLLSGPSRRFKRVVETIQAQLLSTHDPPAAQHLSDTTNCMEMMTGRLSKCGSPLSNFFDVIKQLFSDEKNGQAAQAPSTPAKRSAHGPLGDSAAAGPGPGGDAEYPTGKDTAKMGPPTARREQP
# CAMKK2 (human), sequence (Q96RR4 whole entry, looked up): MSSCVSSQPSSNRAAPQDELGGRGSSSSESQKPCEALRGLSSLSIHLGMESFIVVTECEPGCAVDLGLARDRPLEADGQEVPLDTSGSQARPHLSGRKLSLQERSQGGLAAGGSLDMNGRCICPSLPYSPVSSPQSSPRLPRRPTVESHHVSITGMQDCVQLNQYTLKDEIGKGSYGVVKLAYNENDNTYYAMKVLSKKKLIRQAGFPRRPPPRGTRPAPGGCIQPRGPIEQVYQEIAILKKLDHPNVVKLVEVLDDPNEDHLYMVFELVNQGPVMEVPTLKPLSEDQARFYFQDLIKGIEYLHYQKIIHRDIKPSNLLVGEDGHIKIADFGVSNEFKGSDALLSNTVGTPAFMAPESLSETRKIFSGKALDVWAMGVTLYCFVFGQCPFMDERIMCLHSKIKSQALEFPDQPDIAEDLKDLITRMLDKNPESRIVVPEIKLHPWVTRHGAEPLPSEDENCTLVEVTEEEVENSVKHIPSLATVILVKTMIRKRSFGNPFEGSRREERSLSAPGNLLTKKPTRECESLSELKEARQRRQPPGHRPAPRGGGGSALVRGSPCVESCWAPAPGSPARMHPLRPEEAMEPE
# TNK1 (human), sequence (Q13470 whole entry, looked up): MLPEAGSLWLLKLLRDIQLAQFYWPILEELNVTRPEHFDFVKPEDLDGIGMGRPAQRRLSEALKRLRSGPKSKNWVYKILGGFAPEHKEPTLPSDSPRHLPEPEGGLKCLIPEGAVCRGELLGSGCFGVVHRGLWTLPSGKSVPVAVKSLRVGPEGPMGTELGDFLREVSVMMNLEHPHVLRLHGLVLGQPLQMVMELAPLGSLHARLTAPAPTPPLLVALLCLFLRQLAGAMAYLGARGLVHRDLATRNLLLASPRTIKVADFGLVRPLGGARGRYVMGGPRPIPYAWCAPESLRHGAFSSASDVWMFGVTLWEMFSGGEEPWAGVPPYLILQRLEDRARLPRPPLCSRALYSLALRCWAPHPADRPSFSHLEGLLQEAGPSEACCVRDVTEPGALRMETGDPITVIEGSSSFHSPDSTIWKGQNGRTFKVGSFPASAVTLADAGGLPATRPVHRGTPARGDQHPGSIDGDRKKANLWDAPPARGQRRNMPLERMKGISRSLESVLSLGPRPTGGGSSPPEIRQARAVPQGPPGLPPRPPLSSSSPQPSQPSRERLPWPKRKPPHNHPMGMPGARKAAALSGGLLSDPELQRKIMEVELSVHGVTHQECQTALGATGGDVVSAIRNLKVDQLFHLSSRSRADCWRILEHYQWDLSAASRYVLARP
# NEK2 (human), sequence (P51955 whole entry, looked up): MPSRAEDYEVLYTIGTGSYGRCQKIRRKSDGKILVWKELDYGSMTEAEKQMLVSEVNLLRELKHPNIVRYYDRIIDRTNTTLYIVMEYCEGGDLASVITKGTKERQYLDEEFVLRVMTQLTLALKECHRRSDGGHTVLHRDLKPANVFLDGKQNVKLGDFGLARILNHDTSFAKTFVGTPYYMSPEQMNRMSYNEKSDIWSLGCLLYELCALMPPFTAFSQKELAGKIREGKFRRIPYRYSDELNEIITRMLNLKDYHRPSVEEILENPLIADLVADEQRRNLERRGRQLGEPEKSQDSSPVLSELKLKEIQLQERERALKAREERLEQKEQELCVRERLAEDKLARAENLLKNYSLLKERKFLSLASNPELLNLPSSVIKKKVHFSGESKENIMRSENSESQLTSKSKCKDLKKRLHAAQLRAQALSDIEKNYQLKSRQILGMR
structure (smiles),measurement,setting,value
COc1cc(C(=O)N2CCC(N3CCN(C)CC3)CC2)ccc1Nc1ncc2c(n1)N(C)c1ccccc1C(=O)N2C,"kinase still bound, per cent of control",[1],60%
same,"kinase still bound, per cent of control",[2],21%
same,Kd,[3],0.023 µM
same,"kinase still bound, per cent of control",[3]; compound 10.0 µM,2.8%
same,"kinase still bound, per cent of control",[4],16%
same,"kinase still bound, per cent of control",[5],15%
same,residual activity,[6],100%
same,"kinase still bound, per cent of control",[7],100%
same,"kinase still bound, per cent of control",[8],95%
same,"kinase still bound, per cent of control",[9],100%
same,"kinase still bound, per cent of control",[10],100%
same,"kinase still bound, per cent of control",[11],69%
same,"kinase still bound, per cent of control",[12],100%
same,"kinase still bound, per cent of control",[13],89%
same,"kinase still bound, per cent of control",[14],100%
same,"kinase still bound, per cent of control",[15],24%
same,"kinase still bound, per cent of control",[16],59%
same,"kinase still bound, per cent of control",[17],100%
same,"kinase still bound, per cent of control",[18],81%
same,"kinase still bound, per cent of control",[19],98%
same,"kinase still bound, per cent of control",[20],97%
same,IC50,[21],0.87 µM
same,IC50,[22],6.51 µM
same,IC50,[23],5.92 µM
same,IC50,[24],983 µM
same,IC50,[25],4.47 µM
same,IC50,[26],3.67 µM
same,IC50,[27],8.21 µM
same,IC50,[28],0.003 µM
same,IC50,[29],45 µM
same,residual activity,[30]; compound 1.0 µM,89%
same,residual activity,[30]; compound 10.0 µM,53%
same,residual activity,[31]; compound 1.0 µM,85%
same,residual activity,[31]; compound 10.0 µM,89%
same,residual activity,[32]; compound 1.0 µM,92%
same,residual activity,[32]; compound 10.0 µM,110%
same,residual activity,[33]; compound 1.0 µM,73%
same,residual activity,[33]; compound 10.0 µM,45%
same,residual activity,[34]; compound 1.0 µM,87%
same,residual activity,[34]; compound 10.0 µM,95%
same,residual activity,[35]; compound 1.0 µM,74%
same,residual activity,[35]; compound 10.0 µM,80%
same,residual activity,[36]; compound 1.0 µM,89%
same,residual activity,[36]; compound 10.0 µM,87%
same,residual activity,[37]; compound 1.0 µM,75%
same,residual activity,[37]; compound 10.0 µM,43%
same,residual activity,[38]; compound 1.0 µM,78%
same,residual activity,[38]; compound 10.0 µM,78%
